Molecular target: T1, Human M4 (Homo sapiens, UniProt P08173)
T1 construct: expressed in transfected cells; host or cells: CHO-K1 (ATCC), co-transfected with chimeric G protein Gqi5
T1 sequence (P08173 1-479): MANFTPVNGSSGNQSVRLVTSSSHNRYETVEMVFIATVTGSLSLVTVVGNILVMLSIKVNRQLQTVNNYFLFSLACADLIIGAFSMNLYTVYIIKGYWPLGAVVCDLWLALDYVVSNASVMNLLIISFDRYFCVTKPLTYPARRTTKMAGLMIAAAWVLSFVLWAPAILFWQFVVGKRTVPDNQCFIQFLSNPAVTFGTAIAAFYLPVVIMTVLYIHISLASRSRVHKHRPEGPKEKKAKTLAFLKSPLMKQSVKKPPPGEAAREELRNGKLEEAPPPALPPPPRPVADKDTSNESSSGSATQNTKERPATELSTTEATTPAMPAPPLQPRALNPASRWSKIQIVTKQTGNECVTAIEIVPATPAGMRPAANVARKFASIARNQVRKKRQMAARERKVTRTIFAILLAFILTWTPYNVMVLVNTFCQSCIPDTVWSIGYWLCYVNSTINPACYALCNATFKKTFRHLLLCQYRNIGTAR
Assay: mAChR M4 cell-based functional assay (calcium flux, antagonism of EC80 acetylcholine response)
Details: M4/Gqi5/CHO-K1 cells; for remaining activity at 30 µM: CHO-K1, % ACh maximum at 30 μM, read-out: Human M4 Emin; for IC50: decrease of response elicited by EC80 acetylcholine
Experimental: Human or rat M4 cDNA, along with the chimeric G protein Gqi5, were transfected into Chinese hamster ovary (CHO-K1) cells purchased from the American Type Culture Collection using Lipofectamine2000. M4/Gqi5/CHO cells were grown in Ham's F-12 medium containing 10% heat-inactivated fetal bovine serum (FBS), 20 mM HEPES, 500 μg/mL G418 sulfate, and 200 μg/mL Hygromycin B.
For high throughput measurement of agonist-evoked increases in intracellular calcium, CHO-K1 cells stably expressing muscarinic receptors were plated in growth medium lacking G418 and hygromycin at 15,000 cells/20 μL/well in Greiner 384-well black-walled, tissue culture (TC)-treated, clear-bottom plates (VWR). Cells were incubated overnight at 37° C. and 5% CO2. The next day, cells were washed using an ELX 405 (BioTek) with assay buffer; the final volume was then aspirated to 20 μL. Next, 20 μL of a 2.3 μM stock of Fluo-4/acetoxymethyl ester (Invitrogen, Carlsbad, Calif.), prepared as a 2.3 mM stock in DMSO and mixed in a 1:1 ratio with 10% (w/v) Pluronic F-127 and diluted in assay buffer, was added to the wells and the cell plates were incubated for 50 min at 37° C. and 5% CO2. Dye was removed by washing with the ELX 405 and the final volume was aspirated to 20 μL. Compound master plates were formatted in a 10 point concentration-response curve (CRC) format (1:3 dilutions) in 100% DMSO with a starting concentration of 10 or 1 mM using a BRAVO liquid handler (Agilent). Test compound CRCs were then transferred to daughter plates (240 nL) using the Echo acoustic plate reformatter (Labcyte, Sunnyvale, Calif.) and then diluted into assay buffer (40 μL) to a 2× stock using a Thermo Fisher Combi (Thermo Fisher Scientific, Waltham, Mass.).
Calcium flux was measured using the Functional Drug Screening System (FDSS) 6000 or 7000 (Hamamatsu Corporation, Tokyo, Japan) as an increase in the fluorescent static ratio. Compounds were applied to cells (20 μL, 2×) using the automated system of the FDSS at 2 seconds into the protocol and the data were collected at 1 Hz. At 143 s, 10 μL of an EC20 concentration of the muscarinic receptor agonist acetylcholine was added (5×), followed by the addition of 12 μL of an EC80 concentration of acetylcholine at the 268 s time point (5×). Agonist activity was analyzed as a concentration-dependent increase in calcium mobilization upon compound addition. Positive allosteric modulator activity was analyzed as a concentration-dependent increase in the EC20 acetylcholine response. Antagonist activity was analyzed as a concentration-dependent decrease in the EC80 acetylcholine response; for the purposes of the tables herein, an IC50 (inhibitory concentration 50) was calculated as a concentration-dependent decrease of the response elicited by an EC80 concentration of acetylcholine. Concentration-response curves were generated using a four-parameter logistical equation in XLFit curve fitting software (IDBS, Bridgewater, N.J.) for Excel (Microsoft, Redmond, Wash.) or Prism (GraphPad Software, Inc., San Diego, Calif.) or the Dotmatics software platform (Dotmatics, Bishop's Stortford, UK).
Compounds were synthesized as described above. Activity (IC50 and Emin) was determined in the mAChR M4 cell-based functional assay as described above and the data are shown in Table 2.

SMILES	remaining activity at 30 µM [%]	IC50 [nM]
[2H]C([2H])(C1CCOCC1)N1C[C@H]2C[C@H](Nc3nnc(-c4cc(F)ccc4C)cc3C3CC3)C[C@H]2C1 [compound 26, (3aR,5s,6aS)-N-(4-cyclopropyl-6-(5-fluoro-2-methylphenyl)pyridazin-3-yl)-2-((tetrahydro-2H-pyran-4-yl)methyl-d2)octahydrocyclopenta[c]pyrrol-5-amine]	3	263
[2H]C([2H])(C1CCOCC1)N1C[C@H]2C[C@H](Nc3nnc(-c4cc(F)ccc4F)cc3C3CC3)C[C@H]2C1 [compound 27, (3aR,5s,6aS)-N-(4-cyclopropyl-6-(2,5-difluorophenyl)pyridazin-3-yl)-2-((tetrahydro-2H-pyran-4-yl)methyl-d2)octahydrocyclopenta[c]pyrrol-5-amine]	4	719
[2H]C([2H])(C1CCOCC1)N1C[C@H]2C[C@H](Nc3nnc(N4CCC(F)(F)CC4)cc3C3CC3)C[C@H]2C1 [compound 28, (3aR,5s,6aS)-N-(4-cyclopropyl-6-(4,4-difluoropiperidin-1-yl)pyridazin-3-yl)-2-((tetrahydro-2H-pyran-4-yl)methyl-d2)octahydrocyclopenta[c]pyrrol-5-amine]	3	186
[2H]C([2H])(C1CCOCC1)N1C[C@H]2C[C@H](Nc3nnc(N4CCC(F)(F)CC4)cc3C3CCC3)C[C@H]2C1 [compound 29, (3aR,5s,6aS)-N-(4-cyclobutyl-6-(4,4-difluoropiperidin-1-yl)pyridazin-3-yl)-2-((tetrahydro-2H-pyran-4-yl)methyl-d2)octahydrocyclopenta[c]pyrrol-5-amine]	2	60.7
[2H]C([2H])(C1CCOCC1)N1C[C@H]2C[C@H](Nc3nnc(-c4cc(F)ccc4F)cc3C3CCC3)C[C@H]2C1 [compound 30, (3aR,5s,6aS)-N-(4-cyclobutyl-6-(2,5-difluorophenyl)pyridazin-3-yl)-2-((tetrahydro-2H-pyran-4-yl)methyl-d2)octahydrocyclopenta[c]pyrrol-5-amine]	2	116
[2H]C([2H])(C1CCOCC1)N1C[C@H]2C[C@H](Nc3nnc(-c4cc(F)ccc4C)cc3C3CCC3)C[C@H]2C1 [compound 31, (3aR,5s,6aS)-N-(4-cyclobutyl-6-(5-fluoro-2-methylphenyl)pyridazin-3-yl)-2-((tetrahydro-2H-pyran-4-yl)methyl-d2)octahydrocyclopenta[c]pyrrol-5-amine]	3	34.5
[2H]C([2H])(C1CCOCC1)N1C[C@H]2C[C@H](Nc3nnc(-c4cc(F)cc(F)c4F)cc3C3CC3(F)F)C[C@H]2C1 (stereo partly drawn) [compound 33, (3aR,5s,6aS)-N-(4-(2,2-difluorocyclopropyl)-6-(2,3,5-trifluorophenyl)pyridazin-3-yl)-2-((tetrahydro-2H-pyran-4-yl)methyl-d2)octahydrocyclopenta[c]pyrrol-5-amine]	3	6.4
[2H]C([2H])(C1CCOCC1)N1C[C@H]2C[C@H](Nc3nnc(-c4cc(F)cc(F)c4F)cc3C(C)(C)C)C[C@H]2C1 [compound 36, (3aR,5s,6aS)-N-(4-(tert-butyl)-6-(2,3,5-trifluorophenyl)pyridazin-3-yl)-2-((tetrahydro-2H-pyran-4-yl)methyl-d2)octahydrocyclopenta[c]pyrrol-5-amine]	4	1030
[2H]C([2H])(C1CCOCC1)N1C[C@H]2C[C@H](Nc3cc(C4(C(F)(F)F)CC4)c(-c4cc(F)c(F)cc4F)nn3)C[C@H]2C1 [compound 38, (3aR,5s,6aS)-2-((tetrahydro-2H-pyran-4-yl)methyl-d2)-N-(5-(1-(trifluoromethyl)cyclopropyl)-6-(2,4,5-trifluorophenyl)pyridazin-3-yl)octahydrocyclopenta[c]pyrrol-5-amine]	3	46.3
[2H]C([2H])(C1CCOCC1)N1C[C@H]2C[C@H](Nc3cc(C4(C(F)(F)F)CC4)c(-c4cc(F)cc(F)c4F)nn3)C[C@H]2C1 [compound 39, (3aR,5s,6aS)-2-((tetrahydro-2H-pyran-4-yl)methyl-d2)-N-(5-(1-(trifluoromethyl)cyclopropyl)-6-(2,3,5-trifluorophenyl)pyridazin-3-yl)octahydrocyclopenta[c]pyrrol-5-amine]	3	17.9

The next compounds have a lower IC50 than those just listed; values first:

remaining activity at 30 µM [%]	IC50 [nM]	SMILES
2	5.05	[2H]C([2H])(C1CCOCC1)N1C[C@H]2C[C@H](Nc3nnc(-c4cc(F)cc(F)c4F)cc3C3CC3)C[C@H]2C1 [compound 34, (3aR,5s,6aS)-N-(4-cyclopropyl-6-(2,3,5-trifluorophenyl)pyridazin-3-yl)-2-((tetrahydro-2H-pyran-4-yl)methyl-d2)octahydrocyclopenta[c]pyrrol-5-amine]
3	2.76	[2H]C([2H])(C1CCOCC1)N1C[C@H]2C[C@H](Nc3cc(C(F)F)c(-c4cc(F)ccc4C)nn3)C[C@H]2C1 [compound 32, (3aR,5s,6aS)-N-(5-(difluoromethyl)-6-(5-fluoro-2-methylphenyl)pyridazin-3-yl)-2-((tetrahydro-2H-pyran-4-yl)methyl-d2)octahydrocyclopenta[c]pyrrol-5-amine]
3	1.68	[2H]C([2H])(C1CCOCC1)N1C[C@H]2C[C@H](Nc3nnc(-c4cc(F)ccc4F)cc3C(F)F)C[C@H]2C1 [compound 25, (3aR,5s,6aS)-N-(4-(difluoromethyl)-6-(2,5-difluorophenyl)pyridazin-3-yl)-2-((tetrahydro-2H-pyran-4-yl)methyl-d2)octahydrocyclopenta[c]pyrrol-5-amine]
3	1.37	[2H]C([2H])(C1CCOCC1)N1C[C@H]2C[C@H](Nc3cc(C(F)F)c(-c4cc(F)cc(F)c4F)nn3)C[C@H]2C1 [compound 40, (3aR,5s,6aS)-N-(5-(difluoromethyl)-6-(2,3,5-trifluorophenyl)pyridazin-3-yl)-2-((tetrahydro-2H-pyran-4-yl)methyl-d2)octahydrocyclopenta[c]pyrrol-5-amine]
3	0.69	[2H]C([2H])(C1CCOCC1)N1C[C@H]2C[C@H](Nc3cc(C)c(-c4cc(F)cc(F)c4F)nn3)C[C@H]2C1 [compound 37, (3aR,5s,6aS)-N-(5-methyl-6-(2,3,5-trifluorophenyl)pyridazin-3-yl)-2-((tetrahydro-2H-pyran-4-yl)methyl-d2)octahydrocyclopenta[c]pyrrol-5-amine]
3	0.5	Cc1cc(N[C@H]2C[C@@H]3CN(CC4CCOCC4)C[C@@H]3C2)nnc1-c1cc(F)cc(F)c1F [compound 35, (3aR,5s,6aS)-N-(5-methyl-6-(2,3,5-trifluorophenyl)pyridazin-3-yl)-2-((tetrahydro-2H-pyran-4-yl)methyl)octahydrocyclopenta[c]pyrrol-5-amine]

From patent US20230122344A1, “ANTAGONISTS OF THE MUSCARINIC ACETYLCHOLINE RECEPTOR M4” (Vanderbilt University, priority 2019, published 2023)
